In patent US10548843B2, “Sustained-release silica composite depot non-steroidal anti-inflammatory drug delivery” (Solani Therapeutics, priority 2015, dated 2020):
Values belong to the compound of their own block, whether it stands above or below them.

Columns and labels:
[1] = dogs, single oral administration; cited from earlier work
[2] = cited from earlier work
[3] = Concentration of meloxicam in plasma of dogs after single subcutaneous silica hydrogel depot; type: in vivo; settings: dog, sc, 3.16 mg meloxicam/kg bodyweight, single s.c. silica hydrogel depot
Protocol: Example 1 relates to animal studies carried out. […] The appropriate dose of TI was administered subcutaneously as a one off dose at the area behind the shoulder blade.

[4] = Mouse study: body weight at necropsy; type: in vivo, mouse (BALB/cAnNCrl, male); settings: SiO2 left flank, SiO2 with meloxicam right flank, s.c. 0.1 ml
Protocol: A mouse study was carried out using 15 animals from University of Turku, Central Animal Laboratory, Pharmacity breeding unity. All animals were BALB/cAnNCrl, male. The animals were acclimatised for 15 days. No period of isolation was needed. At the start of the study the animals were aged 10-13 weeks and weighed 28.9 g±1.38 g (min. 26.6 g, max 31.1 g).
Administration of the test items was carried out according to the study design set out in Table 3. The test item was administered by subcutaneous (back) injection using a syringe and an 18G needle at a dose volume of 0.1 ml/mouse.
Animals were weighed and euthanized (CO2) at the end of the experiment (Animals #1, 2, and 3 were not weighed). The injection sites were macroscopically observed and digital pictures from test items in soft tissue was taken at the each time point. The test item (gel) was removed from a soft tissue when possible.

[5] = Animal 4, necropsy 7 days after injections
[6] = Animal 7, necropsy 14 days after injections
[7] = Animal 10, necropsy 28 days after injections

SMILES: NS(=O)(=O)c1ccc(-n2nc(C(F)(F)F)cc2-c2ccc(F)cc2)cc1 [Mavacoxib]
Time a therapeutic level is maintained [1]: one month

SMILES: CC(C(=O)O)c1ccc2c(c1)[nH]c1ccc(Cl)cc12 (centres unmarked) [carprofen]
Solubility in water [2]: practically insoluble in water

concentration at 0 hours ([3]; Dog 1, 0.0 hours): 0 ng/mL | concentration at 0.5 hours ([3]; Dog 1, 0.5 hours): 43.2 ng/mL | concentration at 1 hours ([3]; Dog 1, 1.0 hours): 132 ng/mL | concentration at 2 hours ([3]; Dog 1, 2.0 hours): 296 ng/mL | concentration at 3 hours ([3]; Dog 1, 3.0 hours): 379 ng/mL | concentration at 4 h ([3]; Dog 1, 4.0 hours): 402 ng/mL | concentration at 6 h ([3]; Dog 1, 6.0 hours): 375 ng/mL | concentration at 8 h ([3]; Dog 1, 8.0 hours): 294 ng/mL | concentration at 12 h ([3]; Dog 1, 12.0 hours): 363 ng/mL | concentration at 504 h ([3]; Dog 1, 504.0 hours): 4.3 ng/mL | concentration at 576 h ([3]; Dog 1, 576.0 hours): 2.6 ng/mL | concentration at 672 h ([3]; Dog 1, 672.0 hours): 1.5 ng/mL | concentration at 840 hours ([3]; Dog 1, 840.0 hours): 1 ng/mL | concentration at 1008 hours ([3]; Dog 1, 1008.0 hours): 0.9 ng/mL | concentration at 1176 hours ([3]; Dog 1, 1176.0 hours): 0.5 ng/mL | concentration at 1344 hours ([3]; Dog 1, 1344.0 hours): 0.4 ng/mL | concentration at 0 hours ([3]; Dog 2, 0.0 hours): 0 ng/mL | concentration at 0.5 hours ([3]; Dog 2, 0.5 hours): 27 ng/mL | concentration at 1 hours ([3]; Dog 2, 1.0 hours): 76 ng/mL | concentration at 2 hours ([3]; Dog 2, 2.0 hours): 153 ng/mL | concentration at 3 hours ([3]; Dog 2, 3.0 hours): 227 ng/mL | concentration at 4 h ([3]; Dog 2, 4.0 hours): 257 ng/mL | concentration at 6 h ([3]; Dog 2, 6.0 hours): 349 ng/mL | concentration at 8 h ([3]; Dog 2, 8.0 hours): 344 ng/mL | concentration at 12 h ([3]; Dog 2, 12.0 hours): 447 ng/mL | concentration at 504 h ([3]; Dog 2, 504.0 hours): 115 ng/mL | concentration at 576 h ([3]; Dog 2, 576.0 hours): 101 ng/mL | concentration at 672 hours ([3]; Dog 2, 672.0 hours): 67.3 ng/mL | concentration at 840 hours ([3]; Dog 2, 840.0 hours): 40.1 ng/mL | concentration at 1008 hours ([3]; Dog 2, 1008.0 hours): 17.9 ng/mL | concentration at 1176 hours ([3]; Dog 2, 1176.0 hours): 5.6 ng/mL | concentration at 1344 hours ([3]; Dog 2, 1344.0 hours): 2.6 ng/mL | concentration at 0 hours ([3]; Dog 3, 0.0 hours): 0 ng/mL | concentration at 0.5 hours ([3]; Dog 3, 0.5 hours): 27.1 ng/mL | concentration at 1 hours ([3]; Dog 3, 1.0 hours): 93.9 ng/mL | concentration at 2 hours ([3]; Dog 3, 2.0 hours): 215 ng/mL | concentration at 3 hours ([3]; Dog 3, 3.0 hours): 301 ng/mL | concentration at 4 h ([3]; Dog 3, 4.0 hours): 319 ng/mL | concentration at 6 h ([3]; Dog 3, 6.0 hours): 359 ng/mL | concentration at 8 h ([3]; Dog 3, 8.0 hours): 404 ng/mL | concentration at 12 h ([3]; Dog 3, 12.0 hours): 559 ng/mL | concentration at 504 h ([3]; Dog 3, 504.0 hours): 33.1 ng/mL | concentration at 576 h ([3]; Dog 3, 576.0 hours): 16.6 ng/mL | concentration at 672 hours ([3]; Dog 3, 672.0 hours): 11.6 ng/mL | concentration at 840 hours ([3]; Dog 3, 840.0 hours): 6.5 ng/mL | concentration at 1008 hours ([3]; Dog 3, 1008.0 hours): 5.6 ng/mL | concentration at 1176 hours ([3]; Dog 3, 1176.0 hours): 3 ng/mL | concentration at 1344 hours ([3]; Dog 3, 1344.0 hours): 2.4 ng/mL
SMILES: Cc1cnc(NC(=O)C2=C(O)c3ccccc3S(=O)(=O)N2C)s1 [meloxicam]
Weight at necropsy [4, 5]: 27.3 g | Weight gain [4, 5]: -0.7 g | Weight at necropsy [4, 6]: 29.0 g | Weight gain [4, 6]: 0.0 g | Weight at necropsy [4, 7]: 32.7 g | Weight gain [4, 7]: 1.6 g | Solubility in methanol ([2]; methanol): very slightly soluble | Solubility in strong acids and bases ([2]; strong acids and bases, compared with water): higher solubility | Solubility in water [2]: practically insoluble in water
